Source: ChEMBL document CHEMBL5303762, “Data for DCP probe BI-8668” (2023)
Each block holds one compound with its values, some of them ahead of it.

Experiments:
[1] = target: 5-hydroxytryptamine receptor 1B (Homo sapiens) (UniProt P28222); test: 5HT1B(H) Eurofins SafetyScreen44 (BI); details: filed as antagonist, Compound concentration 10.0 uM
[2] = target: MAO-A (amine oxidase [flavin-containing] A) (Homo sapiens, UniProt P21397); test: (§1) MAO-A_ANTAG Eurofins SafetyScreen44 (BI); set-up: scale not given: the % may be the effect or the level left; details: compound concentration 10 uM, read-out: % Ctrl
[3] = target: Prostaglandin G/H synthase 2 (Homo sapiens) (UniProt P35354); test: COX-2 Eurofins SafetyScreen44 (BI); details: Compound concentration 10.0 uM
[4] = target: Kappa-type opioid receptor (Homo sapiens) (UniProt P41145); test: KAPPA(KOP)_HU Eurofins SafetyScreen44 (BI); details: Compound concentration 10.0 uM
[5] = target: Prostaglandin G/H synthase 1 (Homo sapiens) (UniProt P23219); test: COX-1 Eurofins SafetyScreen44 (BI); details: Compound concentration 10.0 uM
Chain of Prostaglandin G/H synthase 1 (Homo sapiens) (P23219 whole entry): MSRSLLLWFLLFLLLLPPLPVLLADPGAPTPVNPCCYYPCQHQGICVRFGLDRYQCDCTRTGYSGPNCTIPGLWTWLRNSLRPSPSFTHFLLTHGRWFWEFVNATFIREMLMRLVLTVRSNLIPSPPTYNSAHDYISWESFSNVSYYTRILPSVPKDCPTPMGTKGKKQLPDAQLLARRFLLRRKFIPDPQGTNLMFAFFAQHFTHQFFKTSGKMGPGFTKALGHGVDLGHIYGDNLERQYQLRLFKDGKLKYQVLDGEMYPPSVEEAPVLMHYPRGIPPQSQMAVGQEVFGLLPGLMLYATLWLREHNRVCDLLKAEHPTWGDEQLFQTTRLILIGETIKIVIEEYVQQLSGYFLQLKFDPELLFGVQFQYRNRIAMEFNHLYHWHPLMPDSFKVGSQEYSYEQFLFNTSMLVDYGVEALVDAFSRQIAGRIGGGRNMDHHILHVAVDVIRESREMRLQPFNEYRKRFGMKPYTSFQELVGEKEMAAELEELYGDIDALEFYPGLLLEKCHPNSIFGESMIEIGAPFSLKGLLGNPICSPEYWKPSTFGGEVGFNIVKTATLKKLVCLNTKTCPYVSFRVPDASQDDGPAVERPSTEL

[6] = target: Cannabinoid receptor 1 (Homo sapiens) (UniProt P21554); test: CB1/CENTR/H Eurofins SafetyScreen44 (BI); details: Compound concentration 10.0 uM
[7] = target: D(2) dopamine receptor (Homo sapiens) (UniProt P14416); details: Compound concentration 10.0 uM
Chain of D(2) dopamine receptor (Homo sapiens) (P14416 whole entry): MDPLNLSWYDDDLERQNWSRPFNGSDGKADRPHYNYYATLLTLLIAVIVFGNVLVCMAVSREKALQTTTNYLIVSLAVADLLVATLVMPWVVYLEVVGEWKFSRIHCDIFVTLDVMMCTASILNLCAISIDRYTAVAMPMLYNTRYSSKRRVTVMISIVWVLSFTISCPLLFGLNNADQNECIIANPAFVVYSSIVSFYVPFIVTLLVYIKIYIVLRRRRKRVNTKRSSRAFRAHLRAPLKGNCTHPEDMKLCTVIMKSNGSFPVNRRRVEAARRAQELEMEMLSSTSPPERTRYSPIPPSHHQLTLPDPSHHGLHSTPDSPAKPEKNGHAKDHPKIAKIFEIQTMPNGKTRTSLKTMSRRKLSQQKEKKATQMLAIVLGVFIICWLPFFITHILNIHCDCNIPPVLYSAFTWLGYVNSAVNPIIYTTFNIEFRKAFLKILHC

[8] = target: T1, Alpha-1A adrenergic receptor (Homo sapiens) (UniProt P35348); test: ALPHA1A(H)ANTAG Eurofins SafetyScreen44 (BI); details: filed as antagonist, Compound concentration 10.0 uM
T1 sequence (whole entry): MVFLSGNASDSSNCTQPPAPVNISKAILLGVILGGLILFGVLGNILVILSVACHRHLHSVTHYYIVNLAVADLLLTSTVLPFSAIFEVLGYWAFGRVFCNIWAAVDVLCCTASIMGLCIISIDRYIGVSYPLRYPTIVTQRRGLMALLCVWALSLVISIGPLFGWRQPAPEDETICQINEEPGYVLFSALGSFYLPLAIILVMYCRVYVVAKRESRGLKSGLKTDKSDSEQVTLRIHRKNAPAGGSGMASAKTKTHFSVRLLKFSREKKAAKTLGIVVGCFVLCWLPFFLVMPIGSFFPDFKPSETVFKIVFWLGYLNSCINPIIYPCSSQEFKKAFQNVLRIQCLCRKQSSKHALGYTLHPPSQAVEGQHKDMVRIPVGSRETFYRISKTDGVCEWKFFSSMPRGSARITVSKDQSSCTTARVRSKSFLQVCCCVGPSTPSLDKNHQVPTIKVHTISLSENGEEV

[9] = target: 5-hydroxytryptamine receptor 2B (Homo sapiens) (UniProt P41595); details: Compound concentration 10.0 uM
Chain of 5-hydroxytryptamine receptor 2B (Homo sapiens) (P41595 whole entry): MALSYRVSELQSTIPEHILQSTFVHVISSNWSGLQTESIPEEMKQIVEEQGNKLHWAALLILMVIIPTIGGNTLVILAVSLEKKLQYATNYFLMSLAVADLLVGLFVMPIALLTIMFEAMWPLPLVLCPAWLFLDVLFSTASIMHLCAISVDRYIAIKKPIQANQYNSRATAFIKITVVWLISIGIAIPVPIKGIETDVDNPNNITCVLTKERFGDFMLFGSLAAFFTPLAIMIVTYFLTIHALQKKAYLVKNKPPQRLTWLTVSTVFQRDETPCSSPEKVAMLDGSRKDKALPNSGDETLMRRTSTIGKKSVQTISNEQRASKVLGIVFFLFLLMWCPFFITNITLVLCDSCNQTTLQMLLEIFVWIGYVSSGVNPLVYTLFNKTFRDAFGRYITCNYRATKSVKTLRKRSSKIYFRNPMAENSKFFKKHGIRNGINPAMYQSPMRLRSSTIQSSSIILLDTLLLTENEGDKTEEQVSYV

[10] = target: GABA-A receptor; anion channel (Rattus norvegicus) (UniProt O09028+P15431+P18506+P18508+P19969+P20236+P23574+P23576+P28471+P28473+P30191+P62813+P63079+P63138+Q91ZM7+Q9ES14); details: Compound concentration 10.0 uM
D(1B) dopamine receptor = D(1B) dopamine receptor (Homo sapiens, UniProt P21918); test: GPCRScan assay: inhibition of D5; set-up: radioligand conc. used [nm] 2.0 – 3.0, parental cells HEKT
Chain of D(1B) dopamine receptor (P21918 whole entry): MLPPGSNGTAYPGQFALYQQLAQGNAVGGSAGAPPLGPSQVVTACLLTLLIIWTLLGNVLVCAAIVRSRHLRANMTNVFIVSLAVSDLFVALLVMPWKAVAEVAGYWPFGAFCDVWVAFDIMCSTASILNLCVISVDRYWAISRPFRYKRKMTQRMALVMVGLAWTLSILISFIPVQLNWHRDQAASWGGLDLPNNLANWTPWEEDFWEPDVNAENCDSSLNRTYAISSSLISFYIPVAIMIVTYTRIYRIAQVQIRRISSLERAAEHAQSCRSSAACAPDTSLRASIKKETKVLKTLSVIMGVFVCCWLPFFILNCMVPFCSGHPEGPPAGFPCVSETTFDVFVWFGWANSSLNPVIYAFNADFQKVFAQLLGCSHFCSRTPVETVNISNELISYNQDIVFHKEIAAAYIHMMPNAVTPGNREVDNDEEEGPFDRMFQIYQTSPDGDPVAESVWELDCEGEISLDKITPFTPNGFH

Rattus norvegicus = organism: Rattus norvegicus; details: Compound concentration 10.0 uM
[11] = target: Mu-type opioid receptor (Homo sapiens) (UniProt P35372); details: Compound concentration 10.0 uM
Chain of Mu-type opioid receptor (Homo sapiens) (P35372 whole entry): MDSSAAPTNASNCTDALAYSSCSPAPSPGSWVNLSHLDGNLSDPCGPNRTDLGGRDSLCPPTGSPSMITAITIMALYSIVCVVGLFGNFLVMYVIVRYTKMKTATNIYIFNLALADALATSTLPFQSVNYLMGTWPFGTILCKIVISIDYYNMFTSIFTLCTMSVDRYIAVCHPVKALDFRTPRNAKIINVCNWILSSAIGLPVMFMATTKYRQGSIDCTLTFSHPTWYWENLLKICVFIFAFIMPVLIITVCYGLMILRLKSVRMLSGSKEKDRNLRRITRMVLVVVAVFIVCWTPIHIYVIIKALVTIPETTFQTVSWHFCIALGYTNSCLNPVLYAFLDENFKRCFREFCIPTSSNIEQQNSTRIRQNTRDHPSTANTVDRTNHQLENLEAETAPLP

[12] = target: Sigma intracellular receptor 2 (Homo sapiens) (UniProt Q5BJF2); details: Compound concentration 10.0 uM
[13] = target: 5-hydroxytryptamine receptor 2C (Homo sapiens) (UniProt P28335); details: Compound concentration 10.0 uM
Chain of 5-hydroxytryptamine receptor 2C (Homo sapiens) (P28335 whole entry): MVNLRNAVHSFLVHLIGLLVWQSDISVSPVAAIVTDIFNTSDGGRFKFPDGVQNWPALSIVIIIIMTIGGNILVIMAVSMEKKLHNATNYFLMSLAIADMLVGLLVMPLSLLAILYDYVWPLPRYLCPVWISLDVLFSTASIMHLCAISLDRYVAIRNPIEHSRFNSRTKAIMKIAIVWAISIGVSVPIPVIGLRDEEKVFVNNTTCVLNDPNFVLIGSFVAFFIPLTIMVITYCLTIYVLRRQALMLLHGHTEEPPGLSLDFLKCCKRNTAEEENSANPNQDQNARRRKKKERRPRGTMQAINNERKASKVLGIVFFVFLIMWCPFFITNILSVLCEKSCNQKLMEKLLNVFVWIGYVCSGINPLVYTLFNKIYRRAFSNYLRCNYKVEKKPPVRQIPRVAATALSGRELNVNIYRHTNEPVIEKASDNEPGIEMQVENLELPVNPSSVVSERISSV

[14] = target: 5-hydroxytryptamine receptor 5A (Homo sapiens) (UniProt P47898); details: Compound concentration 10.0 uM
Chain of 5-hydroxytryptamine receptor 5A (Homo sapiens) (P47898 whole entry): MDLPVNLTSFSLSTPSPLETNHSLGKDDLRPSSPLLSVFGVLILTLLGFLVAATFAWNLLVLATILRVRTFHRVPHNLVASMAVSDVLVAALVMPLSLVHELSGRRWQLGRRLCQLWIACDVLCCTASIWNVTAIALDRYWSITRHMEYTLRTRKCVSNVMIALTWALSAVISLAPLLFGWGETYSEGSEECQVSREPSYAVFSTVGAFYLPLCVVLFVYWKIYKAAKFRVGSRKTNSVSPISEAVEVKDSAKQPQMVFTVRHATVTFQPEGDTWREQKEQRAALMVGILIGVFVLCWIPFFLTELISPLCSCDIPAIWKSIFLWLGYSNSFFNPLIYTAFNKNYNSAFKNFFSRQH

[15] = target: Histamine H1 receptor (Homo sapiens) (UniProt P35367); details: Compound concentration 10.0 uM
[16] = target: D(3) dopamine receptor (Homo sapiens) (UniProt P35462); details: Compound concentration 10.0 uM
Chain of D(3) dopamine receptor (Homo sapiens) (P35462 whole entry): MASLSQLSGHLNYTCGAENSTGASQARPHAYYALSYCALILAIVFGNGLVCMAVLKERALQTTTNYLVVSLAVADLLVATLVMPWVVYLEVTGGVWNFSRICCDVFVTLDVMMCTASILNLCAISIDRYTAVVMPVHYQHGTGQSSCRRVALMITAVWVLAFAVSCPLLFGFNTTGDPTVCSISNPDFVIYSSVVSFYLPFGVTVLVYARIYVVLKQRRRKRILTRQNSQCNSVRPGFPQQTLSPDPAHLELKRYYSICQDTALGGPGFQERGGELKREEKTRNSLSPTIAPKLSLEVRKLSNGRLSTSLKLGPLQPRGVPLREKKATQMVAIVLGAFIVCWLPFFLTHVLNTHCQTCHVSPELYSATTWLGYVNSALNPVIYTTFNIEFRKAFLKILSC

[17] = target: Muscarinic acetylcholine receptor M4 (Homo sapiens) (UniProt P08173); details: Compound concentration 10.0 uM
[18] = target: Alpha-2B adrenergic receptor (Homo sapiens) (UniProt P18089); details: Compound concentration 10.0 uM
[19] = target: T1, Alpha-1A adrenergic receptor (Homo sapiens); details: Compound concentration 10.0 uM
[20] = target: Alpha-1B adrenergic receptor (Homo sapiens) (UniProt P35368); details: Compound concentration 10.0 uM
[21] = target: Prostaglandin G/H synthase 1 (Homo sapiens) (UniProt P23219); test: COX1_HU Eurofins SafetyScreen44 (BI); details: Compound concentration 10.0 uM
[22] = target: Delta-type opioid receptor (Homo sapiens) (UniProt P41143); details: Compound concentration 10.0 uM
Chain of Delta-type opioid receptor (Homo sapiens) (P41143 whole entry): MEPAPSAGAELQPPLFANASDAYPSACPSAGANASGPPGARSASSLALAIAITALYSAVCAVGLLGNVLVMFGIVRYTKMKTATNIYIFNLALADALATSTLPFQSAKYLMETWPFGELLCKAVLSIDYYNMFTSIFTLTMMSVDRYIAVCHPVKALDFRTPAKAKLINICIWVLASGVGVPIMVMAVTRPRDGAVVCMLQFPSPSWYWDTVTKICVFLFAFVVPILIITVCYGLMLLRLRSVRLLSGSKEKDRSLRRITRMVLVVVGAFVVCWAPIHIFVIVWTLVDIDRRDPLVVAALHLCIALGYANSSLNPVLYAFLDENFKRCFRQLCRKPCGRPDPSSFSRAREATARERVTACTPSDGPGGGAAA

[23] = target: Muscarinic acetylcholine receptor M3 (Homo sapiens) (UniProt P20309); test: M3(H)AGON Eurofins SafetyScreen44 (BI); details: filed as agonist, Compound concentration 10.0 uM
[24] = target: Amiloride-sensitive sodium channel, ENaC (Mus musculus) (UniProt Q61180+Q9WU38+Q9WU39); test: Inhibition of M-1 water resorption; assay type: functional, cell-based; details: M1, concentration not given here
[25] = target: MAO-A (amine oxidase [flavin-containing] A) (Rattus norvegicus, UniProt P21396); test: as §1; set-up: scale not given: the % may be the effect or the level left; details: compound concentration 10 uM, read-out: % Ctrl
Histamine H3 receptor = Histamine H3 receptor (Homo sapiens, UniProt Q9Y5N1); test: GPCRScan assay: inhibition of H3; set-up: radioligand conc. used [nm] 0.5 – 1.0, parental cells HEK Flp-In
Chain of Histamine H3 receptor (Q9Y5N1 whole entry): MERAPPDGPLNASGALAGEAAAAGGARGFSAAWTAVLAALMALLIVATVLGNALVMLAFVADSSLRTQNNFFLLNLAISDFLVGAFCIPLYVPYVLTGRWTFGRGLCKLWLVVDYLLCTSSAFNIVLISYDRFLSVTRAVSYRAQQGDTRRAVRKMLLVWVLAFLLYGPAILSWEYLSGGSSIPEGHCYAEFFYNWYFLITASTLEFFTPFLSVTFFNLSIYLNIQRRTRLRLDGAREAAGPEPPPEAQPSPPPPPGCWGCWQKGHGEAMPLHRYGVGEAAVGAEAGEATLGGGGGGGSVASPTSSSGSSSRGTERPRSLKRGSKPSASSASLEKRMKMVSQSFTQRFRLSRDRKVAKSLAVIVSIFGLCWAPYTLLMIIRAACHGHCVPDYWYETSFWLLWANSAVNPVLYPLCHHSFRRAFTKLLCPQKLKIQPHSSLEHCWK

[26] = target: 5-hydroxytryptamine receptor 1D (Homo sapiens) (UniProt P28221); details: Compound concentration 10.0 uM
[27] = target: 5-hydroxytryptamine receptor 7 (Homo sapiens) (UniProt P34969); details: Compound concentration 10.0 uM
Chain of 5-hydroxytryptamine receptor 7 (Homo sapiens) (P34969 whole entry): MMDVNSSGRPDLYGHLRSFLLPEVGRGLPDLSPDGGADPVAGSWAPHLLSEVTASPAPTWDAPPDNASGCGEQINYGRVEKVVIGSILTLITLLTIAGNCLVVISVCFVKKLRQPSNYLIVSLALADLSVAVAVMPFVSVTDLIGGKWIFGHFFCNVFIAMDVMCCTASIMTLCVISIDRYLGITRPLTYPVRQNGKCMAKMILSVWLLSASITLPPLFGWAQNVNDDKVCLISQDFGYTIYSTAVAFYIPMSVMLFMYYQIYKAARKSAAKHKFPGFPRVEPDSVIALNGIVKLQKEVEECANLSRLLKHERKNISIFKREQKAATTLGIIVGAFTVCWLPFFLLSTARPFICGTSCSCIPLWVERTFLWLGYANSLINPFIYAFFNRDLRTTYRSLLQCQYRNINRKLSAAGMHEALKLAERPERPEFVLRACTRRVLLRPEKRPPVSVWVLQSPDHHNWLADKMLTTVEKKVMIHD

[28] = target: Kappa-type opioid receptor (Rattus norvegicus) (UniProt P34975); test: KAPPA/R Eurofins SafetyScreen44 (BI); details: Compound concentration 10.0 uM
[29] = target: D(4) dopamine receptor (Homo sapiens) (UniProt P21917); details: Compound concentration 10.0 uM

SMILES: CCn1c(CNC(=O)c2ncc(C)nc2N)[n+](CC)c2ccc(C(=O)N(C)CN(C)C)cc21
residual activity [1]: 94%
activity at 10 µM [2]: 95% (not active)
residual activity [3]: 82%
residual activity [4]: 97%
residual activity [5]: 84%

inhibition [7]: -8.76%
inhibition [9]: 7.03%
inhibition [10]: 22.4%
Ki (D(1B) dopamine receptor; read-out: Ki): 4070 nM
Ki (D(1B) dopamine receptor; read-out: pKi (converted)): 4070 nM
inhibition (Rattus norvegicus): -1.51%
inhibition [11]: 11%
inhibition [12]: -0.91%
inhibition [13]: 1.01%
inhibition [14]: -6.08%
inhibition [15]: -1.28%
inhibition [16]: 8.95%
inhibition [17]: 7.09%
inhibition [18]: 0.45%
inhibition [19]: -1.19%
inhibition [20]: 44.9%
inhibition [22]: 3.99%
inhibition [24]: 81%
Ki (Histamine H3 receptor; read-out: Ki): 257 nM
Ki (Histamine H3 receptor; read-out: pKi (converted)): 219 nM
inhibition [26]: 22.8%
inhibition [27]: 4.76%
inhibition [29]: 7.07%
SMILES: CCn1c(CNC(=O)c2nc(Cl)cnc2N)[n+](CC)c2ccc(C(=O)N(C)CCN(C)C)cc21
residual activity [6]: 99%
residual activity [8]: 89%
residual activity [21]: 106%
residual activity [23]: 102%
activity at 10 µM [25]: 89% (not active)
residual activity [28]: 101%
